Active and inactive are the calls of the source. No cut-off for these calls is given here.
Legend:
[1] = target: Protein smoothened (Mus musculus, UniProt P56726); assay: Inhibition of SMO in mouse NIH/3T3 cells assessed as inhibition of SAG-induced hedgehog-mediated luminescence signaling by GRE-luciferase reporter gene assay; assay type: cell-based
[2] = target: T1, Phosphatidylinositol 4,5-bisphosphate 3-kinase catalytic subunit alpha isoform (Homo sapiens, UniProt P42336); assay: Inhibition of PI3Kalpha (unknown origin) assessed as reduction in luminescence signaling by kinase-Glo plus luminescent kinase assay
[3] = target: Protein smoothened (Homo sapiens, UniProt Q99835); assay: Inhibition of human Smo expressed in human U2OS cells assessed as reduction in BODIPY-cyclopamine fluorescence signaling by competitive displacement assay; assay type: cell-based
[4] = target: T1, Phosphatidylinositol 4,5-bisphosphate 3-kinase catalytic subunit alpha isoform; assay: Inhibition of PI3Kalpha (unknown origin) assessed as reduction in luminescence signaling at 1 uM by kinase-Glo plus luminescent kinase assay
[5] = Solubility of the compound; assay type: physicochemical
[6] = target: T2, Phosphatidylinositol 4,5-bisphosphate 3-kinase catalytic subunit delta isoform (Homo sapiens) (UniProt O00329); assay: Inhibition of N-terminal poly-His tagged human p110-delta expressed in Sf9 cells incubated for 20 mins by alpha screen assay
T2 sequence (whole entry): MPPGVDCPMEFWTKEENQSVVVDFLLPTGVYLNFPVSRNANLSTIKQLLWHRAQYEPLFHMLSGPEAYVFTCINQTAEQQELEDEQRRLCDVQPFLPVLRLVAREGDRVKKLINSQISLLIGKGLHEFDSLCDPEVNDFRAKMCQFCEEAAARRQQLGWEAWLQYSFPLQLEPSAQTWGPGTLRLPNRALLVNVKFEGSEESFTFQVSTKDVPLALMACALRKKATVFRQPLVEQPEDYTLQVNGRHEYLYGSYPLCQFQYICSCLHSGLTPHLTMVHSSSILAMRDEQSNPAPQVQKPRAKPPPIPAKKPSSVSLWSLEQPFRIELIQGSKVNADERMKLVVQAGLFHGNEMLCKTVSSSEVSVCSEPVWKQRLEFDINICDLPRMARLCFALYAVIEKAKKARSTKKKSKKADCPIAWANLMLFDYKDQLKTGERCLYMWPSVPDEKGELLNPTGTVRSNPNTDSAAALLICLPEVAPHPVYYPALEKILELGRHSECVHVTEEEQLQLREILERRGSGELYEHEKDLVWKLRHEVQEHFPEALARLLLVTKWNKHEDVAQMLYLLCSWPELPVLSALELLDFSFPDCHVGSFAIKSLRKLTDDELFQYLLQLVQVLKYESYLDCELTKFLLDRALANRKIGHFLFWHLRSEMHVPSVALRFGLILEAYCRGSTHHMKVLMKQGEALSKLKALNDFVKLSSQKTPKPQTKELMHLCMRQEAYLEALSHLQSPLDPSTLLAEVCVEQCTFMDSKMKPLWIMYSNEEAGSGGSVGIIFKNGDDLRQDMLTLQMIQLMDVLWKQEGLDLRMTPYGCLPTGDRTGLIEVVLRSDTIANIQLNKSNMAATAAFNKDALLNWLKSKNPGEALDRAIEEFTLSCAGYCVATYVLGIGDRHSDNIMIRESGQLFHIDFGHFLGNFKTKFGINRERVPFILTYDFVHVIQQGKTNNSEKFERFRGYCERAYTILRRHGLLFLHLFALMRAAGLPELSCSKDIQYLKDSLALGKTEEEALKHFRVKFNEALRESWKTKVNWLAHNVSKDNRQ

Sequence of Protein smoothened (Mus musculus, UniProt P56726) (P56726 whole entry, canonical isoform): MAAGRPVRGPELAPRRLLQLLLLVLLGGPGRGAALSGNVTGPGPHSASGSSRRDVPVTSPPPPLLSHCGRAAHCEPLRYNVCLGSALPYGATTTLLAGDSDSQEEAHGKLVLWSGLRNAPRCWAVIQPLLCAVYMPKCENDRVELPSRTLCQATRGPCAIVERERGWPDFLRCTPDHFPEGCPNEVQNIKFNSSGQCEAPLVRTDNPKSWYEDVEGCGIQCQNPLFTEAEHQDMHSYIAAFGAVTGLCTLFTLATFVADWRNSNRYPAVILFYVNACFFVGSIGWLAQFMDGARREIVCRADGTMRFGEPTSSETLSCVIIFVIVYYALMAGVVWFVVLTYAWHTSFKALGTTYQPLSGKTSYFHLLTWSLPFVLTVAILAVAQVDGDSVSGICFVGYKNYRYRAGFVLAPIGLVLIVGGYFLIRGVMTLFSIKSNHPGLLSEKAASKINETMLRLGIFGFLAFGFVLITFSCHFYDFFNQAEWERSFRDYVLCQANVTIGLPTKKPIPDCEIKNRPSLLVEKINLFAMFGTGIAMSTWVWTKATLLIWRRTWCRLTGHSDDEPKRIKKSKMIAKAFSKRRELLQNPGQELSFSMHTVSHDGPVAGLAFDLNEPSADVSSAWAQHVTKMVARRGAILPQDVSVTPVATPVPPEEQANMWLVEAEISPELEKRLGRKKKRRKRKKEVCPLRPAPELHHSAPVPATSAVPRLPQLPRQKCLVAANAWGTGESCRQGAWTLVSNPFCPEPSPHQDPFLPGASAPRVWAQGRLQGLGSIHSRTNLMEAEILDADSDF
T1 sequence (P42336 whole entry, canonical isoform): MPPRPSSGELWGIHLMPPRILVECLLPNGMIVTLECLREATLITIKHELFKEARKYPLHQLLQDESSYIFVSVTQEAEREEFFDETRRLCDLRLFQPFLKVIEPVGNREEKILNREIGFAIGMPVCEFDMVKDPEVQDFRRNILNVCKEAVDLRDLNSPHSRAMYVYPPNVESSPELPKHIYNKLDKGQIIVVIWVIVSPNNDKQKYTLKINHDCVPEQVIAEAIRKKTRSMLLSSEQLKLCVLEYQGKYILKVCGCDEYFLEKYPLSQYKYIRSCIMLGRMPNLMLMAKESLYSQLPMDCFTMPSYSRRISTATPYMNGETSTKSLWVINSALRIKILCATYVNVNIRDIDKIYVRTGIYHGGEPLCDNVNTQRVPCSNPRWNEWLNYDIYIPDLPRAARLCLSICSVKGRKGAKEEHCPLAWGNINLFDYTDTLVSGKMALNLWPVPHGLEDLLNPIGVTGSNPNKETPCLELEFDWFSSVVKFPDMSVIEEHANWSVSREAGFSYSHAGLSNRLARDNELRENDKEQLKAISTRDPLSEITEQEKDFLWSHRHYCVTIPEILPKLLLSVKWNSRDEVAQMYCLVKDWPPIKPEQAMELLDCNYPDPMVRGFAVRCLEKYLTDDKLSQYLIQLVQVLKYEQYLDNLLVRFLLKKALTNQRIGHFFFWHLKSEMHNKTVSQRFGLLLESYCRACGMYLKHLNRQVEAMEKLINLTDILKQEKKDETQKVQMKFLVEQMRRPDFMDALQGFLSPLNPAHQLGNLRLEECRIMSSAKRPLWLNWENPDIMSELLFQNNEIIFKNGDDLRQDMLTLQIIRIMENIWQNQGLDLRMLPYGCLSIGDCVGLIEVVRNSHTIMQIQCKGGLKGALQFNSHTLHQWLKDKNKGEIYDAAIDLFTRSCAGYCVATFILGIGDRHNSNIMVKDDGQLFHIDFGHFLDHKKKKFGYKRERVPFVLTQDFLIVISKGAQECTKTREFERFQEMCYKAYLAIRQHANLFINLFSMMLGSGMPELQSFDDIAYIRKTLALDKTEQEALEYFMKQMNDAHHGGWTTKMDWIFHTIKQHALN
Sequence of Protein smoothened (Homo sapiens, UniProt Q99835) (Q99835 whole entry, canonical isoform): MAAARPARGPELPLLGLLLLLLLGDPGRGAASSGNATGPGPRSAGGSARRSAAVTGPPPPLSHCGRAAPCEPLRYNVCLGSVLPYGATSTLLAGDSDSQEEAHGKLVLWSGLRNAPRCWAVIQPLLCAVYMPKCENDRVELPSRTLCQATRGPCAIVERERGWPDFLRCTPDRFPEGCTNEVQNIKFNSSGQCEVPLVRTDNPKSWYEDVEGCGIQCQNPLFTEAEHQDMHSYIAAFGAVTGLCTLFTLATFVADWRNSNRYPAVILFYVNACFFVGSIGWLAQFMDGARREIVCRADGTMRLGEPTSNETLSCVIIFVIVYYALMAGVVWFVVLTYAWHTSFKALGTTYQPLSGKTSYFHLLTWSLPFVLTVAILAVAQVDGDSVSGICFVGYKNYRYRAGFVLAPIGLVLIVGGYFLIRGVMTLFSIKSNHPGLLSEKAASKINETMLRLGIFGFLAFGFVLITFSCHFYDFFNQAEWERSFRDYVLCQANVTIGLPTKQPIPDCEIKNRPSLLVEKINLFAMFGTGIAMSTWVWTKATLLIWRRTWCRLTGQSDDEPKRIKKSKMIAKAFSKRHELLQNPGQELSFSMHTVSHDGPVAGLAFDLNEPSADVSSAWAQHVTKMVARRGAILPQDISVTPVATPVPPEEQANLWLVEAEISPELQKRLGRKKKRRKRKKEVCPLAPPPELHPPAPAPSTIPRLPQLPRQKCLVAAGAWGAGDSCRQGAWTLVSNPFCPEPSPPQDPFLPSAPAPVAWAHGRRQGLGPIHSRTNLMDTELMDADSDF

IC50 [1] [nM] | SMILES | further results
5000 | CC(=O)Nc1nc2ccc(-c3cnc(Cl)c(NC(=O)c4cccc(F)c4)c3)cc2s1 | 
41 | CC(=O)Nc1nc2ccc(-c3cnc(Cl)c(NC(=O)c4cccc(Cl)c4)c3)cc2s1 | IC50 [2]: 980 nM; IC50 [3]: 10 nM; inhibition [4]: 93%
150 | O=C(Nc1cc(-c2ccc3nc(NC4CC4)sc3c2)cnc1Cl)c1cccc(Cl)c1 | 
210 | O=C(Nc1cc(-c2ccc3nc(NC4CC4)sc3c2)cnc1Cl)c1ccccc1 | 
150 | O=C(Nc1cc(-c2ccc3nc(NCC4CC4)sc3c2)cnc1Cl)c1ccccc1 | 
64 | CC(=O)Nc1nc2ccc(-c3cnc(Cl)c(NC(=O)c4ccccc4)c3)cc2s1 | IC50 [3]: 5.6 nM; inhibition [4]: 9%
> 10000 | CC(=O)Nc1nc2ccc(-c3cnc(Cl)c(NC(=O)c4ccc(Cl)cc4)c3)cc2s1 | 
190 | O=C(Nc1cc(-c2ccc3nc(NCC4CC4)sc3c2)cnc1Cl)c1cccc(Cl)c1 | 

More lines, now with the values behind:

SMILES | IC50 [1] [nM] | further results
CC(=O)Nc1nc2ccc(-c3cnc(Cl)c(NC(C#N)c4ccccc4)c3)cc2s1 (configuration not stated) | 100 | IC50 [2]: 490 nM; inhibition [4]: 85%
CC(=O)Nc1nc2ccc(-c3cnc(Cl)c(NS(=O)(=O)c4ccc(F)cc4)c3)cc2s1 | 120 | solubility [5]: Insoluble; inhibition [6]: Active
CC(=O)Nc1nc2ccc(-c3cnc(Cl)c(NC(=O)c4ccccc4F)c3)cc2s1 | > 10000 | 
CC(=O)Nc1nc2ccc(-c3cnc(Cl)c(NC(=O)C4CC4)c3)cc2s1 | > 10000 | 
CC(=O)Nc1nc2ccc(-c3cnc(Cl)c(NC(=O)c4ccc(C)cc4)c3)cc2s1 | 810 | 
CC(=O)Nc1nc2ccc(-c3cnc(Cl)c(NC(=O)c4ccc(F)cc4)c3)cc2s1 | 170 | inhibition [4]: 48%
CC(=O)Nc1nc2ccc(-c3cnc(Cl)c(NCc4ccccc4)c3)cc2s1 | 940 | 
CC(=O)Nc1nc2ccc(-c3cnc(Cl)c(NC(=O)Cc4ccccc4)c3)cc2s1 | 3400 | 
CC(=O)Nc1nc2ccc(-c3cnc(Cl)c(NC(=O)c4ccccc4Cl)c3)cc2s1 | 4100 | 

— ChEMBL document CHEMBL3603806, “Discovery of a 6-(pyridin-3-yl)benzo[d]thiazole template for optimization of hedgehog and PI3K/AKT/mTOR dual inhibitors” (Bioorg Med Chem Lett, 2015)
